Data on one molecule can be found in doi:10.1101/2022.08.24.505199v2 (biorxiv, 2025).

One assay has as its target Mouse NKA α3β1 (Mus musculus, UniProt Q6PIC6). Briefly: NKA ATPase activity inhibition, dose response. The format is biochemical.
Assay [1] addresses NKA α1 purified from pig kidney (outer medulla) (Sus scrofa, UniProt P05024). Nature of the assay: SPR. The format is binding.

`C=Cc1cccc2c1N(C)Cc1cc3c(cc1-2)OCO3` [HLY72]: the IC50 (as a rule, the concentration that gives 50% inhibition) against Mouse NKA α3β1 was determined as 18.6 µM. Besides, in assay [1], the Kd (usually the concentration at which binding is half-saturated) was 4.2 µM.
